The subject of test [1] is Smad3 and phosphorylated Smad3 in human skin fibroblasts. Put plainly: Smad3 activation in western blotting. It is filed as cell-based. Conditions: 24 h treatment, then TGF-β 1 ng/mL 30 min; tested at 30 and 300 nM; western blot. As for the experimental part:
Cells were allowed to adhere overnight before being replaced with serum-free FBM for 24 h. Serum-starved cells were first pretreated with samples in DMSO at 30 and 300 nM for 24 h and then stimulated with 1 ng/mL TGF-β for 30 min. Cell lysates were prepared with lysis buffer and cellular proteins (11 μg/well) were separated by sodium dodecyl sulfate-polyacrylamide gel electrophoresis (4–20% Criterion TGX Precast Gel; Bio-Rad, Ontario, CA, USA). Protein bands were then transferred to polyvinylidene fluoride membranes (Trans-Blot Turbo Midi, Bio-Rad). Following blocking, the membranes were incubated with primary antibodies targeted against phospho-Smad3 (Cell Signaling Technology), Smad3 (Cell Signaling Technology) and β-actin (Cell Signaling Technology) followed by horseradish peroxidase-conjugated secondary antibody (Cell Signaling Technology). ECL Prime Western Blotting Detection Reagent (GE Healthcare Bio-Sciences, Little Chalfont, England) and LAS-3000 image analyzer (Fuji-film, Tokyo, Japan) were used for detection. Western blot band intensities were calculated by densitometric analyses with National Institutes of Health image software, Image J. Representative pictures are shown with quantified densitometric data.

For test [2], the system named is TGF-β-induced fibrotic genes expression in mouse ear skin. The test is described as follows: TGF-β-induced fibrotic gene expression in mouse ear, topical application. The class given is in vivo. The note with it: for expression of fibrosis-related genes (Col1a1, Col1a2, α-Sma) in mouse ear: topical cream daily, 1 h before TGF-β 500 ng intradermal x5, T-3833261 0.01-0.1%, HF 0.01%. On the procedure:
Standard chow diet and water were available ad libitum.
A vehicle without compounds was applied to control mice. […] Topical application of compound was continued for 7 days.
Total RNA was isolated from in vivo samples using ISOGEN II (Nippongene) according to the manufacturer's instructions. In vitro RNA samples were prepared as mentioned above. High Capacity cDNA Reverse Transcription Kit (Life Technologies, Carlsbad, CA, USA) was used for cDNA synthesis. Real-time quantitative RT-PCR reactions were performed as a TaqMan method on a ViiA 7 real-Time PCR System (Life Technologies), using TaqMan Fast Advanced Master Mix (Lifer Technologies) with specific primers on TaqMan Gene Expression Assays (Life Technologies) according to the manufacturer's manual. FAM-probed primers were used: COL1A1, Hs00164004_m1; α-SMA/ACTA2, Hs00426835_g1; fibroblast growth factor 2 (FGF2), Hs00266645_m1; Smad specific E3 ubiquitin protein ligase 2 (SMURF2), Hs00224203_m1; DDIT3, Hs00358796_g1; and glyceraldehyde 3-phosphate dehydrogenase (GAPDH), 4326317E for human in vitro cell assay. FAM-probed and TAMRA-quenched primers (Sigma-Aldrich Japan, Tokyo, Japan) were used: Col1a1, NM_007742; type I collagen alpha 2 (Col1a2), NM_007743; α-Sma/Acta2, NM_007392; and Gapdh, NM_008084 for mouse in vivo assay (S1 Table). The relative mRNA level of the target genes was calculated by the comparative threshold cycle (Ct) method using GAPDH (Gapdh) as an internal control for normalization. The fold change in the expression of each target gene was calculated by the following formula: relative quantification (RQ) = 2^-ΔΔCt.

Test [3] has as its system differentiated human skin myofibroblast. Put plainly: reverse fibrosis: α-SMA protein in TGF-β-induced differentiated skin myofibroblasts (Protocol 2). It is filed as cell-based. The note with it: TGF-β 1 ng/mL 48 h, then compound 48 h without TGF-β. On the procedure:
Protocol 2: Cells were allowed to adhere overnight before being replaced with serum-free FBM for 24 h. Cells were then treated with TGF-β (1 ng/mL) for 48 h to induce differentiation to myofibroblast with expressing α-SMA protein. The medium was then removed, and the cells were subsequently treated with or without samples (1–300 nM) in serum-free FBM for an additional 48 h. Cell lysates were prepared with cell lysis buffer (Cell Signaling Technology, Beverly, MA, USA) and subjected to α-SMA ELISA system (Abnova, Taipei, Taiwan) and Pro-type I Collagen α1 (pro-COL1A1) SimpleStep ELISA Kit (Abcam, Cambridge, UK, USA) according to the manufacturer's protocol.

With `O=C(CC1NCCCC1O)Cn1cnc2cc(Br)c(Cl)cc2c1=O` (centres unmarked) [HF, Halofuginone, reference compound], in test [1], the “concentration showing a decrease in TGF-β-induced accumulation of Smad3” value is listed as 300 nM and the “concentration showing a decrease in phosphorylated Smad3 (p-Smad3)” value is 300 nM. Further, in test [2], the “expression of fibrosis-related genes (Col1a1, Col1a2, α-Sma) in mouse ear” value is “prevented the skin fibrotic genes expression induced by TGF-β”. Moreover, in test [3], the “concentration promoting the reduction of α-SMA protein in differentiated myofibroblasts” value is on record as 100 nM and the “concentration reducing α-SMA levels to that of non-stimulated controls” value is 300 nM.
Turning to `Cn1cc(-c2cc(F)cc(CNC(=O)c3nccc4nc(C5CCCC5)[nH]c34)c2)cn1` [T-3833261, 2-Cyclopentyl-N-(3-fluoro-5-(1-methyl-1H-pyrazol-4-yl)benzyl)-3H-imidazo[4,5-c]pyridine-4-carboxamide], in test [1], the “concentration showing a decrease in TGF-β-induced accumulation of Smad3” value was 30 nM and the “concentration showing a decrease in phosphorylated Smad3 (p-Smad3)” value is recorded as 300 nM. In test [2] (0.1% formulation of T-3833261, topical, mouse ear), the “activity on fibrotic gene expression relative to HF formulation” value was “comparable activity to a 0.01% HF formulation”. Moreover, the “expression of fibrosis-related genes (Col1a1, Col1a2, α-Sma) in mouse ear” value in test [2] is “reduced expression of these fibrotic genes in a dose-dependent manner”. Besides, in test [3], the “concentration promoting the reduction of α-SMA protein in differentiated myofibroblasts” value is 100 nM and the “concentration reducing α-SMA levels to that of non-stimulated controls” value is reported as 300 nM.

The record behind these values is PMC5655428, “Discovery and pharmacological characterization of a new class of prolyl-tRNA synthetase inhibitor for anti-fibrosis therapy” (PLoS ONE, 2017).
